According to PubChem BioAssay (NCI):
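Following 48 hours of exposure in 96-well plates, responses at five concentrations were used to interpolate endpoints linearly. Definition used: TGI = concentration required for complete inhibition of growth.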

How the values were obtained:
Assay in all cases: NCI anticancer screen, dose series, 48 h
EKVX NSCLC = test system: EKVX NSCLC
ACHN renal = test system: ACHN renal
A498 renal = test system: A498 renal
RPMI-8226 leukemia = test system: RPMI-8226 leukemia
OVCAR-4 ovarian = test system: OVCAR-4 ovarian
SF-539 CNS = test system: SF-539 CNS
HT29 colon = test system: HT29 colon
NCI-H23 lung = test system: NCI-H23 lung
OVCAR-8 ovarian = test system: OVCAR-8 ovarian
HOP-62 NSCLC = test system: HOP-62 NSCLC
U251 CNS = test system: U251 CNS
OVCAR-5 ovarian = test system: OVCAR-5 ovarian
MCF7 breast = test system: MCF7 breast
MDA-MB-435 = test system: MDA-MB-435
UACC-257 melanoma = test system: UACC-257 melanoma
SK-OV-3 ovarian = test system: SK-OV-3 ovarian
NCI/ADR-RES ovarian = test system: NCI/ADR-RES ovarian
NCI-H522 lung = test system: NCI-H522 lung
RXF 393 renal = test system: RXF 393 renal
HL-60(TB) leukemia = test system: HL-60(TB) leukemia

| SMILES | TGI (EKVX NSCLC) [µM] | TGI (ACHN renal) [µM] | TGI (A498 renal) [µM] | TGI (RPMI-8226 leukemia) [µM] | TGI (OVCAR-4 ovarian) [µM] | TGI (SF-539 CNS) [µM] | TGI (HT29 colon) [µM] | TGI (NCI-H23 lung) [µM] | TGI (OVCAR-8 ovarian) [µM] | TGI (HOP-62 NSCLC) [µM] | TGI (U251 CNS) [µM] | TGI (OVCAR-5 ovarian) [µM] | TGI (MCF7 breast) [µM] | TGI (MDA-MB-435) [µM] | TGI (UACC-257 melanoma) [µM] | TGI (SK-OV-3 ovarian) [µM] | TGI (NCI/ADR-RES ovarian) [µM] | TGI (NCI-H522 lung) [µM] | TGI (RXF 393 renal) [µM] | TGI (HL-60(TB) leukemia) [µM] |
| --- | --- | --- | --- | --- | --- | --- | --- | --- | --- | --- | --- | --- | --- | --- | --- | --- | --- | --- | --- | --- |
| CC(C)CC(=O)NC(C(=O)NC(C(=O)NC(CC(C)C)C(O)CC(=O)NC(C)C(=O)NC(CC(C)C)C(O)CC(=O)O)C(C)C)C(C)C (stereo not drawn) | > 100 | > 100 | > 100 | > 100 | > 100 | > 100 | > 100 | > 100 | > 100 | > 100 | > 100 | > 100 | > 100 | > 100 | > 100 | > 100 | > 100 | > 100 |  |  |
| O[C@H]1[C@H](O)[C@@H](O)[C@@]2(O)CC[C@@H]1N2 | > 100 | > 100 | > 100 | > 52.4 | > 100 | > 100 | > 100 | > 100 | > 100 | > 100 | > 100 | > 100 | > 100 | > 100 | > 100 | > 100 | > 100 | > 100 | > 100 |  |
| Cc1ccc(C(=O)Cn2c(C(=O)/C=C/c3cccs3)nc3ccccc32)cc1 |  | > 100 | > 100 | > 100 | > 100 | > 100 | > 100 | > 100 |  | > 100 | > 100 | > 100 | > 100 | > 100 | > 100 | > 100 | > 100 |  | > 100 | > 100 |
| O=C(CCCN1CCC2(CC1)CC(=O)N(N1CCOCC1)C2=O)c1ccc(F)cc1 |  | > 100 | > 100 | > 100 |  | > 100 | > 100 | > 100 | > 100 | > 100 | > 100 | > 100 | > 100 | > 100 | > 100 | > 100 | > 100 | > 100 | > 100 | > 100 |
| O=c1[nH]nc(Cc2ccccc2)n1CCCl | > 100 |  | > 100 | > 100 | > 100 | > 100 | > 100 | > 100 | > 100 | > 100 | > 100 | > 100 | > 100 | > 100 |  | > 100 | > 100 |  | > 100 | > 100 |
| C[Si](C)(N[Si](C)(C)OCCc1ccccc1)OCCc1ccccc1 | > 100 | > 100 | > 100 | > 100 | > 100 |  | > 100 | > 100 | > 100 | > 100 | > 100 | > 100 | > 100 | > 100 | > 100 | > 100 | > 100 |  | > 100 | > 100 |
| COc1ccc2[nH]cc(C(=O)C(=O)NC34CC5CC(CC(C5)C3)C4)c2c1 | > 100 | > 100 | > 76.1 | 19.8 | > 100 | > 81.1 | 5.32 | > 100 | > 100 | 74.7 | > 85.3 | > 100 | > 31.6 | > 100 | > 100 | > 100 | > 100 | > 100 | 16.8 |  |
| Cc1ccc(N=NC(=Nc2ccc(Cl)cc2)c2ccc(N(CCC#N)CCC#N)cc2)cc1 | > 100 | > 100 | > 100 | > 100 | > 100 | > 100 | > 100 | > 100 | > 100 | > 100 | 59.5 | > 100 | > 100 | > 100 | 76.1 | > 100 | > 100 | 66 | > 100 |  |
| CCOC(=O)c1cc2c3c(c(C(C)=O)c(O)c2[nH]1)N(C(C)=O)CC3 | > 100 | > 100 | > 100 | > 100 |  | > 100 | > 100 | > 100 | > 100 | > 100 | > 100 | > 100 | > 100 | > 100 | > 100 | > 100 | > 100 |  | > 100 | > 100 |
| CCSc1cc2c(cc1O)CC[C@@H]1[C@@H]2CC[C@]2(C)[C@@H](O)CC[C@@H]12 |  | 24.9 | 28.9 | > 100 | 38.7 | 34.3 | 23 | 44.3 | 38.5 | 30.6 | 25.2 | 51.2 | 27.5 | 10.4 | 30.2 | 39.2 | 26.9 | 19.5 | 39.2 | > 100 |
| [N-]=[N+]=Nc1c(Cl)c(Cl)nc2ccccc12 | > 100 | > 100 | > 100 | > 100 | > 100 | > 100 | > 100 | > 100 | > 100 | > 100 |  | > 100 | > 100 | > 100 | > 100 | > 100 | > 100 | > 100 | > 100 |  |
| C=C(C)[C@@]1(O)CCCC[C@@H]1CC(Sc1ccccc1)Sc1ccccc1 | 28.7 | > 100 | 68.4 | 33.9 | 29.1 |  | 42.5 | 29.9 | 38.6 | 35 | 53.9 | 30.7 | 53.9 | 33 | 48.7 | 39.6 | 34 | 26.5 | 29.2 | 78.4 |
| CN(C)CCNC(=O)c1cccc2c(NC(CS)C(=O)O)c3ccccc3[n+](C)c12 (stereo not drawn) | > 100 | > 100 | > 100 | > 100 | > 100 | > 100 | > 100 | > 100 | > 100 | > 100 | > 100 | > 100 | > 100 | > 100 | > 100 | > 100 | 93.2 |  |  |  |
| O=c1/c(=C/c2ccc([N+](=O)[O-])o2)sc2n1[C@@H](c1ccc(Cl)cc1)C=C(c1cc(F)c(Cl)cc1Cl)N=2 |  | 32.6 | > 100 | 25.9 | 30.8 | 69 | 23.2 | 39.4 | 40.8 | 30.6 | 21.7 | 30.6 | 32.2 | 36.2 | 30.6 | 50.8 | > 100 | 49.2 | 28.5 | 49.2 |
| CC1(C)CC(=O)C2=C(C1)NC1=C(C2)C(=O)CC(C)(C)C1 | > 100 | > 100 | > 100 | > 100 | > 100 | > 100 | > 100 | > 100 | > 100 | > 100 | > 100 | > 100 | > 100 | > 100 | > 100 | > 100 | > 100 |  | > 100 | > 100 |
| O=C(CC(C(=O)c1cccs1)c1ccsc1)c1ccccc1 (stereo not drawn) | > 100 | > 100 | > 100 | > 100 | > 100 | > 100 | > 100 | 85.4 | > 100 | > 100 | > 100 | > 100 | 99.1 | > 100 | > 100 | > 100 | 80.4 | > 100 | > 100 |  |
| O=C(O)c1nc2ccc(C(F)(F)F)cc2nc1NCc1ccc(Cl)c(Cl)c1 | 30.4 | 30.5 | 34.6 | > 100 | 51.4 | 36.6 | 28.5 | 32.4 | 32.8 | 32.2 | 28.3 | 26.3 | 45.3 | 30 | 54.3 | 38.5 | 42.7 |  |  |  |
| O=c1cc(CSc2c(-c3ccccc3)c(=O)n(-c3ccccc3)c(=S)n2-c2ccccc2)[nH]c(=O)[nH]1 | > 100 | > 100 | > 100 | > 100 |  | > 100 | > 100 |  | > 100 | > 100 | > 100 | > 100 | > 100 | > 100 | > 100 | > 100 | > 100 |  | > 100 | > 100 |
| CC1CC/C(=C\c2ccc(N(C)C)cc2)C2=C1C(c1ccc(N(C)C)cc1)NC(=S)N2 (stereo not drawn) | > 100 | > 100 | > 100 | > 100 |  | > 100 | > 100 | > 100 | > 100 |  | > 100 | > 100 | > 100 | > 100 | > 100 | > 100 | > 100 |  | > 100 | > 100 |
| CC1(C)C2CC(O)C1CCC2=O (stereo not drawn) |  | > 100 | > 100 | > 100 | > 100 | > 100 | > 100 | > 100 | > 100 | > 100 | > 100 | > 100 | > 100 | > 100 | > 100 | > 100 | > 100 | > 100 | > 100 | > 100 |
